Where two headings read alike, the source gives them in different places.
System: L1210 leukemia
Assay: Lymphoid Leukemia L1210, survival of tumored mice
Type: in vivo, CD2F1 mice
Settings: for response vs control in vivo at 200 mg/kg: 200 mg/kg i.p.; for response vs control in vivo at 175 mg/kg: 175 mg/kg i.p.; for response vs control in vivo at 37.5 mg/kg: 37.5 mg/kg i.p.; for response vs control in vivo at 12.5 mg/kg: 12.5 mg/kg i.p.
Procedure: The efficacy of the compounds of this invention against the transplanted mouse tumors was evaluated in test systems currently in use at the National Cancer Institute for the detection and assessment of anticancer activity. […] J. Cancer, 17, 129-142, (1981); Venditti, J. M., Seminars in Oncology, 8 (4) (1981); Goldin, A. and J. M. Venditti, in Recent Results in Cancer Research, 70, S. K. Carter and Y. Sakurai, Eds., Springer-Verlag, Berlin/Heidelberg, 1980].
The animals used in this test were CD2 F1 mice, all males weighing a minimum of 18 g and all within a 4 g weight range at the start of the test. The test group consisted of six mice. The tumor was implanted in each of the test mice by the intraperitoneal injection of 0.1 ml of diluted ascitic fluid containing 10^5 cells drawn from a mouse with L1210 leukemia. The test compounds were suspended in hydroxypropylcellulose or saline with Tween® 80 surfactant or dissolved in saline and injected intraperitoneally, at various doses, once daily for nine consecutive days starting on day one relative to the day of tumor inoculation (day 0). The control mice received injections of saline or hydroxypropylcellulose vehicle only. The mice were weighed and survivors were recorded on a regular basis for 30 days. The median survival time and the ratio of the median survival time for the treated (T) and control (C) mice was calculated. […] Drug effectiveness was assessed on the basis of the survival time. Results were expressed as a percentage of the control survival time (Median Survival Time: T/C ×100%). The criterion for effectiveness was determined by: T/C×100≥125 percent.

[1] = Mus musculus, L1210, ip, 720 h, read-out: L1210 Leukemia % T/C (median survival time)
[2] = Mus musculus, L1210, ip, 720 h, 100 mg/kg i.p., read-out: L1210 Leukemia % T/C (median survival time)
[3] = Mus musculus, L1210, ip, 720 h, 25 mg/kg i.p., read-out: L1210 Leukemia % T/C (median survival time)
[4] = Mus musculus, L1210, ip, 720 h, 50 mg/kg i.p., read-out: L1210 Leukemia % T/C (median survival time)
[5] = Mus musculus, L1210, ip, 720 h, 75 mg/kg i.p., read-out: L1210 Leukemia % T/C (median survival time)
[6] = Mus musculus, L1210, ip, 720 h, 150 mg/kg i.p., read-out: L1210 Leukemia % T/C (median survival time)
[7] = Mus musculus, L1210, ip, 720 h, 50 mg/kg i.p., nonoptimal Q1DX9 instead of Q3DX9, read-out: L1210 Leukemia % T/C (median survival time)
[8] = Mus musculus, L1210, ip, 720 h, 75 mg/kg i.p., nonoptimal Q1DX9 instead of Q3DX9, read-out: L1210 Leukemia % T/C (median survival time)
[9] = Mus musculus, L1210, ip, 720 h, nonoptimal Q1DX9 instead of Q3DX9, read-out: L1210 Leukemia % T/C (median survival time)

## Cc1c(-c2ccc(Sc3ccccc3)cc2)nc2ccc(Cl)cc2c1C(=O)O [Example 21]
[1]
  response vs control in vivo at 200 mg/kg: 160%

## Cc1c(-c2ccc(Cc3ccccc3)cc2)nc2ccc(Cl)cc2c1C(=O)O [Example 22]
[2]
  response vs control in vivo at 100 mg/kg: 135%

## Cc1c(-c2ccc(-c3ccc(F)cc3)cc2)nc2ccc(Cl)cc2c1C(=O)O [Example 23]
[3]
  response vs control in vivo at 25 mg/kg: 159%

## Cc1c(-c2ccc(-c3ccc(Br)cc3)cc2)nc2ccc(Cl)cc2c1C(=O)O [Example 27]
[4]
  response vs control in vivo at 50 mg/kg: 155%

## COc1c(-c2ccc(-c3ccc(C(F)(F)F)cc3)cc2)nc2ccc(F)cc2c1C(=O)O [Example 32]
[1]
  response vs control in vivo at 175 mg/kg: 153%

## Cc1c(-c2ccc([S+]([O-])c3ccccc3)cc2)nc2ccc(F)cc2c1C(=O)O (centres unmarked) [Example 34]
Mus musculus, L1210, ip, 720 h, 400 mg/kg i.p., read-out: L1210 Leukemia % T/C (median survival time)
  response vs control in vivo at 400 mg/kg: 170%

## Cc1c(-c2ccc(Oc3ccc(F)cc3)cc2)nc2ccc(F)cc2c1C(=O)O [Example 35]
150 mg/kg i.p.
  L1210 Leukemia % T/C (median survival time): 204%

## Cc1c(-c2ccc(-c3ccc(Cl)c(Cl)c3)cc2)nc2ccc(F)cc2c1C(=O)O [Example 36]
[5]
  response vs control in vivo at 75 mg/kg: 185%

## COc1c(-c2ccc(-c3ccccc3)cc2)nc2ccc(F)cc2c1C(=O)O [Example 37]
50 mg/kg i.p.
  L1210 Leukemia % T/C (median survival time): 155%

## Cc1ccc2c(C(=O)O)c(C)c(-c3ccc(-c4ccccc4)cc3)nc2c1 [Example 55]
[6]
  response vs control in vivo at 150 mg/kg: 156%

## Cc1c(-c2ccc(-c3ccccc3)cc2)nc2cc(Cl)c(F)cc2c1C(=O)O [Example 61]
[5]
  response vs control in vivo at 75 mg/kg: 160%

## Cc1cc(-c2ccccc2)ccc1-c1nc2ccc(F)cc2c(C(=O)O)c1C [Example 68]
[2]
  response vs control in vivo at 100 mg/kg: 162%

## Cc1c(-c2ccc(-c3ccccc3)cc2)nc2ccc(I)cc2c1C(=O)O [Example 71]
[3]
  response vs control in vivo at 25 mg/kg: 163%

## Cc1c(-c2ccc(-c3ccc(F)cc3F)cc2)nc2ccc(F)cc2c1C(=O)O [Example 74]
[4]
  response vs control in vivo at 50 mg/kg: 104%

## O=C(O)c1cc(-c2ccc(Oc3ccc(F)cc3)cc2)nc2ccc(F)cc12 [Example 75]
[6]
  response vs control in vivo at 150 mg/kg: 145%

## CSc1ccc2nc(-c3ccc(-c4ccccc4)cc3)c(C)c(C(=O)O)c2c1 [Example 76, 2-(4-Biphenyl)-3-methyl-6-methylthio-4-quinoline carboxylic acid]
[1]
  response vs control in vivo at 200 mg/kg: 179%

## Cc1ccc(-c2ccc(-c3nc4ccc(F)c(Cl)c4c(C(=O)O)c3C)cc2)cc1 [Example 85]
100 mg/kg i.p.
  L1210 Leukemia % T/C (median survival time): 184%

## Cc1c(-c2ccc(Oc3ccc([N+](=O)[O-])cc3)cc2)nc2ccc(F)cc2c1C(=O)O [Example 86, 6-Fluoro-3-methyl-2-(4-nitrophenoxyphenyl)-4-quinolinecarboxylic acid]
[1]
  response vs control in vivo at 175 mg/kg: 153%

## CCC(C)c1ccc(-c2nc3ccc(F)cc3c(C(=O)O)c2C)cc1 (centres unmarked) [Example 99]
[7]
  response vs control in vivo at 50 mg/kg: 101%

## CCc1c(-c2ccc(C3CCCCC3)cc2)nc2ccc(F)cc2c1C(=O)O [Example 100]
[7]
  response vs control in vivo at 50 mg/kg: 103%

## Cc1c(-c2ccc(Oc3ccccc3)cc2)nc2ccc(Cl)cc2c1C(=O)O [Example 110]
[3]
  response vs control in vivo at 25 mg/kg: 135%

## Cc1c(-c2ccc(-c3ccc(F)cc3)cc2)nc2ccc(Cl)cc2c1C(=O)O [Example 113]
25 mg/kg i.p.
  L1210 Leukemia % T/C (median survival time): 166%

## Cc1c(-c2ccc(SCc3ccccc3)cc2)nc2ccc(F)cc2c1C(=O)O [Example 116]
[8]
  response vs control in vivo at 75 mg/kg: 102%

## Cc1c(-c2ccc(-c3ccc(Br)cc3)cc2)nc2ccc(Cl)cc2c1C(=O)O [Example 117]
[3]
  response vs control in vivo at 25 mg/kg: 163%

## Cc1ccc(-c2ccc(-c3nc4ccc(F)cc4c(C(=O)O)c3C)cc2)cc1 [Example 120]
[2]
  response vs control in vivo at 100 mg/kg: 132%

## O=C(O)c1cc(-c2ccc(-c3ccccc3)cc2)nc2ccc(F)cc12 [Example 123]
Mus musculus, L1210, ip, 720 h, 21.9 mg/kg i.p., read-out: L1210 Leukemia % T/C (median survival time)
  response vs control in vivo at 21.9 mg/kg: 145%

## Cc1c(-c2ccc([S+]([O-])c3ccccc3)cc2)nc2ccc(F)cc2c1C(=O)O (centres unmarked) [Example 124]
Mus musculus, L1210, ip, 720 h, 360 mg/kg i.p., read-out: L1210 Leukemia % T/C (median survival time)
  response vs control in vivo at 360 mg/kg: 184%

## Cc1c(-c2ccc(Oc3ccc(F)cc3)cc2)nc2ccc(F)cc2c1C(=O)O [Example 125]
150 mg/kg i.p.
  L1210 Leukemia % T/C (median survival time): 150%

## Cc1c(-c2ccc(-c3ccc(Cl)c(Cl)c3)cc2)nc2ccc(F)cc2c1C(=O)O [Example 126]
[1]
  response vs control in vivo at 37.5 mg/kg: 150%

## COc1c(-c2ccc(-c3ccccc3)cc2)nc2ccc(F)cc2c1C(=O)O [Example 127]
50 mg/kg i.p.
  L1210 Leukemia % T/C (median survival time): 193%

## Cc1ccc(-c2ccc(-c3nc4ccc(F)cc4c(C(=O)O)c3C)cc2)cc1Cl [Example 128]
[3]
  response vs control in vivo at 25 mg/kg: 135%

## Cc1ccc(-c2ccc(-c3nc4ccc(F)cc4c(C(=O)O)c3C)cc2)cc1C [Example 129]
[2]
  response vs control in vivo at 100 mg/kg: 154%

## Cc1c(-c2ccc(C3CCCCC3)cc2)nc2ccc(Br)cc2c1C(=O)O [Example 135]
400 mg/kg i.p.
  L1210 Leukemia % T/C (median survival time): 160%

## Cc1c(-c2ccc(-c3ccccc3)cc2)nc2ccc(Br)cc2c1C(=O)O [Example 142]
[1]
  response vs control in vivo at 37.5 mg/kg: 169%

## Cc1c(-c2ccc(Oc3ccccc3)cc2)nc2ccc(Br)cc2c1C(=O)O [Example 143]
[1]
  response vs control in vivo at 37.5 mg/kg: 132%

## Cc1c(-c2ccc(-c3ccc(F)cc3)cc2)nc2cc(Cl)c(F)cc2c1C(=O)O [Example 144]
[9]
  response vs control in vivo at 37.5 mg/kg: 123%

## Cc1c(-c2ccc(-c3ccccc3)cc2)nc2ccc(C(F)(F)F)cc2c1C(=O)O [Example 146]
[1]
  response vs control in vivo at 37.5 mg/kg: 164%

## Cc1c(-c2ccc(Oc3ccccc3)cc2)nc2ccc(C(F)(F)F)cc2c1C(=O)O [Example 147]
Mus musculus, L1210, ip, 720 h, 18 mg/kg i.p., read-out: L1210 Leukemia % T/C (median survival time)
  response vs control in vivo at 18 mg/kg: 132%

## Cc1cc2c(C(=O)O)c(C)c(-c3ccc(Oc4ccccc4)cc3)nc2cc1Cl [Example 149]
[8]
  response vs control in vivo at 75 mg/kg: 107%

## Cc1c(-c2ccc(-c3ccccc3)cc2)nc2c(Br)cc(Br)cc2c1C(=O)O [Example 150]
[9]
  response vs control in vivo at 37.5 mg/kg: 105%

## Cc1c(-c2ccc(-c3ccccc3)cc2)nc2cc(Cl)c(F)cc2c1C(=O)O [Example 151]
75 mg/kg i.p.
  L1210 Leukemia % T/C (median survival time): 144%

## Cc1cc(-c2ccccc2)ccc1-c1nc2ccc(F)cc2c(C(=O)O)c1C [Example 158]
100 mg/kg i.p.
  L1210 Leukemia % T/C (median survival time): 148%

## Cc1c(-c2ccc(-c3ccccc3F)cc2)nc2ccc(Cl)cc2c1C(=O)O [Example 160]
[3]
  response vs control in vivo at 25 mg/kg: 174%

## Cc1c(-c2ccc(-c3ccccc3)cc2)nc2cccc(Cl)c2c1C(=O)O [Example 163]
Mus musculus, L1210, ip, 720 h, 43.8 mg/kg i.p., read-out: L1210 Leukemia % T/C (median survival time)
  response vs control in vivo at 43.8 mg/kg: 180%

## Cc1c(-c2ccc(-c3ccccc3)cc2)nc2ccc(F)c(Cl)c2c1C(=O)O [Example 164, Sodium 2-(4-Biphenylyl)-5-chloro-6-fluoro-3-methylquinoline-4-carboxylate]
Mus musculus, L1210, ip, 720 h, read-out: L1210 Leukemia % T/C (median survival time), 22.5 mg/kg i.p.
  response vs control in vivo at 22.5 mg/kg: 234%

## Cc1c(-c2ccc(-c3ccccc3)cc2)nc2cc(Cl)cc(Cl)c2c1C(=O)O [Example 165]
[4]
  response vs control in vivo at 50 mg/kg: 128%

## Cc1ccc2nc(-c3ccc(-c4ccccc4)cc3)c(C)c(C(=O)O)c2c1Cl [Example 166]
[4]
  response vs control in vivo at 50 mg/kg: 156%

## Cc1c(-c2ccc(-c3ccccc3F)cc2)nc2ccc(F)c(Cl)c2c1C(=O)O [Example 167]
[1]
  response vs control in vivo at 12.5 mg/kg: 197%

## Cc1c(-c2ccc(Oc3ccccc3)cc2)nc2ccc(Cl)cc2c1C(=O)O [Example 172]
[2]
  response vs control in vivo at 100 mg/kg: 151%

## Cc1c(-c2ccc(-c3ccc(Br)cc3)cc2)nc2ccc(Cl)cc2c1C(=O)O [Example 175]
[1]
  response vs control in vivo at 12.5 mg/kg: 156%
